In US6610675B1 (priority 1980, dated 2003):

Experiments:
[1] = system: granulation tissue formation caused by implantation of cotton pellets; test: Granuloma formation test (local cotton pellet granuloma assay); type: in vivo, rat
Procedure: The test compound was dissolved in acetone and aliquots of varying concentrations were injected into cotton pellets. The pellets were dried and then one pellet was implanted beneath the skin of each test rat. Six days later, the animals were sacrificed and the granulation tissue (granuloma) which formed in and around the implanted pellet was removed, dried and weighed. In addition, the thymi and adrenals were removed and weighed.

[2] = system: ear swelling induced by croton oil; test: Ear edema test; type: in vivo, rat; conditions: 1 mg/kg topical
Procedure: The test animals were Sprague/Dawley rats weighing approximately 150 grams each. In treatment groups, selected amounts of the test compound were dissolved in acetone containing 5% croton oil and 50 microliters of the solution were applied to the inner surface of the right ear of the rats. A control group was identically treated with vehicle only, i.e. 5% croton oil in acetone. Six hours after croton oil challenge, a constant region of each ear was removed by dissection under anesthesia. Then, 48 hours after steroid treatment, the animals were sacrificed and the thymi and adrenals were removed and weighed. The test results showing the inhibitory effect of topically applied steroids on the ear swelling induced by croton oil are summarized in Table II below.

Question: Which results are given for `CCCCC(=O)O[C@]1(C(=O)CO)[C@@H](C)C[C@H]2[C@@H]3CCC4=CC(=O)C=C[C@]4(C)[C@@]3(F)[C@@H](O)C[C@@]21C` [Betamethasone 17-valerate, reference compound]?
Answer: Relative organ weight Thymus ([1]; Table III, 10 mg/pellet): 43 ± 4 mg/100 g body wt.; Relative organ weight Thymus (Decrease %) ([1]; Table III, 10 mg/pellet): (86.8) %; Body wt. gain ([1]; Table IV, 100 μg/pellet): 24.9 ± 1.9 g; Granulation tissue Dry wt. ([1]; Table IV, 100 μg/pellet): 41.1 ± 2.7 mg; Granulation tissue Dry wt. Inhibition ([1]; Table IV, 100 μg/pellet): 49.4%; Granulation tissue Wet wt. ([1]; Table IV, 100 μg/pellet): 400 ± 19 mg; Granulation tissue Wet wt. Inhibition ([1]; Table IV, 100 μg/pellet): 29.3%; Thymus wt. ([1]; Table IV, 100 μg/pellet): 364 ± 24 mg; Thymus wt. (Decrease %) ([1]; Table IV, 100 μg/pellet): (18.2) %; Body wt. gain ([1]; Table IV, 300 μg/pellet): 22.3 ± 1.2 g; Granulation tissue Dry wt. ([1]; Table IV, 300 μg/pellet): 33.3 ± 3.6 mg; Granulation tissue Dry wt. Inhibition ([1]; Table IV, 300 μg/pellet): 59.0%; Granulation tissue Wet wt. ([1]; Table IV, 300 μg/pellet): 347 ± 15 mg; Granulation tissue Wet wt. Inhibition ([1]; Table IV, 300 μg/pellet): 38.7%; Thymus wt. ([1]; Table IV, 300 μg/pellet): 264 ± 29 mg; Thymus wt. (Decrease %) ([1]; Table IV, 300 μg/pellet): (40.7) %; Body wt. gain ([1]; Table IV, 1000 μg/pellet): 5.3 ± 1.0 g; Granulation tissue Dry wt. ([1]; Table IV, 1000 μg/pellet): 38.1 ± 4.8 mg; Granulation tissue Dry wt. Inhibition ([1]; Table IV, 1000 μg/pellet): 53.1%; Granulation tissue Wet wt. ([1]; Table IV, 1000 μg/pellet): 363 ± 28 mg; Granulation tissue Wet wt. Inhibition ([1]; Table IV, 1000 μg/pellet): 35.9%; Thymus wt. ([1]; Table IV, 1000 μg/pellet): 77 ± 5 mg; Thymus wt. (Decrease %) ([1]; Table IV, 1000 μg/pellet): (82.7) %; Body wt. gain ([1]; Table IV, 3000 μg/pellet): 6.6 ± 1.4 g; Granulation tissue Dry wt. ([1]; Table IV, 3000 μg/pellet): 43.0 ± 4.1 mg; Granulation tissue Dry wt. Inhibition ([1]; Table IV, 3000 μg/pellet): 47.0%; Granulation tissue Wet wt. ([1]; Table IV, 3000 μg/pellet): 374 ± 15 mg; Granulation tissue Wet wt. Inhibition ([1]; Table IV, 3000 μg/pellet): 33.9%; Thymus wt. ([1]; Table IV, 3000 μg/pellet): 63 ± 3 mg; Thymus wt. (Decrease %) ([1]; Table IV, 3000 μg/pellet): (85.8) %; Body wt. gain ([1]; Table V-a, 10 μg/pellet): 31.8 ± 1.6 g; Granulation tissue Dry wt. ([1]; Table V-a, 10 μg/pellet): 38.5 ± 6.2 mg; Granulation tissue Dry wt. Inhibition ([1]; Table V-a, 10 μg/pellet): 51.9%; Granulation tissue Wet wt. ([1]; Table V-a, 10 μg/pellet): 375 ± 19 mg; Granulation tissue Wet wt. Inhibition ([1]; Table V-a, 10 μg/pellet): 28.6%; Thymus wt. ([1]; Table V-a, 10 μg/pellet): 479 ± 25 mg; Thymus wt. (Decrease %) ([1]; Table V-a, 10 μg/pellet): (3.2) %; Body wt. gain ([1]; Table V-a, 30 μg/pellet): 30.8 ± 3.0 g; Granulation tissue Dry wt. ([1]; Table V-a, 30 μg/pellet): 46.2 ± 7.4 mg; Granulation tissue Dry wt. Inhibition ([1]; Table V-a, 30 μg/pellet): 42.3%; Granulation tissue Wet wt. ([1]; Table V-a, 30 μg/pellet): 412 ± 42 mg; Granulation tissue Wet wt. Inhibition ([1]; Table V-a, 30 μg/pellet): 21.5%; Thymus wt. ([1]; Table V-a, 30 μg/pellet): 484 ± 23 mg; Thymus wt. (Decrease %) ([1]; Table V-a, 30 μg/pellet): (2.2) %; Body wt. gain ([1]; Table V-a, 100 μg/pellet): 25.7 ± 1.2 g; Granulation tissue Dry wt. ([1]; Table V-a, 100 μg/pellet): 41.0 ± 4.2 mg; Granulation tissue Dry wt. Inhibition ([1]; Table V-a, 100 μg/pellet): 48.8%; Granulation tissue Wet wt. ([1]; Table V-a, 100 μg/pellet): 419 ± 20 mg; Granulation tissue Wet wt. Inhibition ([1]; Table V-a, 100 μg/pellet): 20.2%; Thymus wt. ([1]; Table V-a, 100 μg/pellet): 378 ± 30 mg; Thymus wt. (Decrease %) ([1]; Table V-a, 100 μg/pellet): (23.6) %; ED50 ([1]; Table XII, anti-inflammatory effect in cotton pellet granuloma): 100 μg/pellet; Ear Weight, % Increase ([2]; 6 hr): 10.9 ± 6.3 %; Ear Weight, % Inhibition ([2]; 6 hr): 82.2%; Ear Weight, Inflamed Ear ([2]; 6 hr): 55.4 ± 1.2 mg; Ear Weight, Untreated Ear ([2]; 6 hr): 50.4 ± 2.0 mg; Relative organ weight Adrenals ([2]; 48 hours): 18.9 ± 1.9 mg/100 g body wt.; Relative organ weight Thymus ([2]; 48 hours): 267 ± 19 mg/100 g body wt.
